Like-named read-outs stand apart in the source and are kept apart here.
Columns and labels:
[1] = target: human NaV1.6 (hNaV1.6) (Homo sapiens (Human), UniProt Q9UQD0); experiment: INaL inhibition at hNaV1.6, PatchXpress electrophysiology; type: cell-based
Description: Functional characterization of exemplary compounds to modulate INaL expressed by the Nay 1.6 voltage-gated sodium channel was accomplished using the PatchXpress™ high throughput electrophysiology platform (Molecular Devices, Sunnyvale, Calif.). HEK-293 cells expressing recombinant, human NaV1.6 (hNaV1.6) were grown in DMEM/high-glucose Dulbecco's modified, 10% FBS, 2 mM sodium pyruvate, 10 mM HEPES and 400 μg/mL G418. Cells were grown to 50%-80% confluency prior to harvesting. […] The onboard liquid handling facility of the PatchXpress was used for dispensing cells and applying test compounds. Nay late currents were evoked by the application of 300 nM ATX-II. […] INaL amplitude and stability were determined by analyzing the mean current amplitude over the final 20 ms of the test pulse. […] Percent steady-state inhibition of INaL was calculated as: [(INaL_compound)/(INaL_control)]*100, where INaL_compound and INaL_control represent INaL recorded in the presence or absence of compound, respectively.

[2] = PK rat clearance experiment; type: in vivo; settings: male Sprague-Dawley rats, single intravenous bolus 0.5 mg/kg, plasma
Description: The IV dosing solution was prepared freshly on the dosing day. Test article (0.5 mg/kg) was prepared in a vehicle, for example, consisting of 5% DMSO/5% solutol/90% water. The concentrations of test article in all dosing solutions were determined by HPLC/UV. Three male Sprague-Dawley rats were used in this study. The animals were confirmed healthy before being assigned to the study. Each animal was given a unique identification number which was marked on the tail or the ear, and written on the cage card. All animals were fasted overnight before dosing and the food was returned at 4 hours post dosing. Water was provided to all animals ad libitum during the fasting period. Animals were weighed prior to dose administration on the day of dosing for calculating the actual dose volume. The body weights were in the range from 212 g to 223 g for males. All animals received test article by single intravenous bolus administration at 0.5 mg/kg. Approximately 0.2 mL blood was collected at each time point via jugular vein from each study animal. […] All blood samples were transferred into pre-labeled plastic micro centrifuge tubes and mixed with the pre-loaded anti-coagulant K2EDTA (5 μL, 0.5 M). Plasma samples were then prepared by centrifuging the blood samples. All plasma samples were then quickly frozen over dry ice and kept at −60° C. or lower until LC/MS/MS analysis. The concentrations of test article in plasma were determined by using a quantitative bioanalytical LC/MS/MS method. The lower limit of quantitation (LLOQ) for test article in plasma was 1 ng/mL, and the upper limit of quantitation (ULOQ) in plasma was 3000 ng/mL. The plasma concentration of test article in rats was subjected to a non compartmental pharmacokinetic analysis by using the Phoenix WinNonlin software (version 6.3, Pharsight, Mountain View, Calif.). The linear/log trapezoidal rule was applied in obtaining the PK parameters.

[3] = HEK293, 1 μM, HEK-293 cells expressing hNaV1.6, late current evoked by 300 nM ATX-II, read-out: INaL v1.6 (1 μM, % Inhibition)
[4] = HEK293, read-out: INaL v1.6 (1 μM, % Inhibition)
[5] = 1 μM, HEK-293 cells expressing hNaV1.6, late current evoked by 300 nM ATX-II

human NaV1.6 (hNaV1.6), sequence (Q9UQD0 whole entry): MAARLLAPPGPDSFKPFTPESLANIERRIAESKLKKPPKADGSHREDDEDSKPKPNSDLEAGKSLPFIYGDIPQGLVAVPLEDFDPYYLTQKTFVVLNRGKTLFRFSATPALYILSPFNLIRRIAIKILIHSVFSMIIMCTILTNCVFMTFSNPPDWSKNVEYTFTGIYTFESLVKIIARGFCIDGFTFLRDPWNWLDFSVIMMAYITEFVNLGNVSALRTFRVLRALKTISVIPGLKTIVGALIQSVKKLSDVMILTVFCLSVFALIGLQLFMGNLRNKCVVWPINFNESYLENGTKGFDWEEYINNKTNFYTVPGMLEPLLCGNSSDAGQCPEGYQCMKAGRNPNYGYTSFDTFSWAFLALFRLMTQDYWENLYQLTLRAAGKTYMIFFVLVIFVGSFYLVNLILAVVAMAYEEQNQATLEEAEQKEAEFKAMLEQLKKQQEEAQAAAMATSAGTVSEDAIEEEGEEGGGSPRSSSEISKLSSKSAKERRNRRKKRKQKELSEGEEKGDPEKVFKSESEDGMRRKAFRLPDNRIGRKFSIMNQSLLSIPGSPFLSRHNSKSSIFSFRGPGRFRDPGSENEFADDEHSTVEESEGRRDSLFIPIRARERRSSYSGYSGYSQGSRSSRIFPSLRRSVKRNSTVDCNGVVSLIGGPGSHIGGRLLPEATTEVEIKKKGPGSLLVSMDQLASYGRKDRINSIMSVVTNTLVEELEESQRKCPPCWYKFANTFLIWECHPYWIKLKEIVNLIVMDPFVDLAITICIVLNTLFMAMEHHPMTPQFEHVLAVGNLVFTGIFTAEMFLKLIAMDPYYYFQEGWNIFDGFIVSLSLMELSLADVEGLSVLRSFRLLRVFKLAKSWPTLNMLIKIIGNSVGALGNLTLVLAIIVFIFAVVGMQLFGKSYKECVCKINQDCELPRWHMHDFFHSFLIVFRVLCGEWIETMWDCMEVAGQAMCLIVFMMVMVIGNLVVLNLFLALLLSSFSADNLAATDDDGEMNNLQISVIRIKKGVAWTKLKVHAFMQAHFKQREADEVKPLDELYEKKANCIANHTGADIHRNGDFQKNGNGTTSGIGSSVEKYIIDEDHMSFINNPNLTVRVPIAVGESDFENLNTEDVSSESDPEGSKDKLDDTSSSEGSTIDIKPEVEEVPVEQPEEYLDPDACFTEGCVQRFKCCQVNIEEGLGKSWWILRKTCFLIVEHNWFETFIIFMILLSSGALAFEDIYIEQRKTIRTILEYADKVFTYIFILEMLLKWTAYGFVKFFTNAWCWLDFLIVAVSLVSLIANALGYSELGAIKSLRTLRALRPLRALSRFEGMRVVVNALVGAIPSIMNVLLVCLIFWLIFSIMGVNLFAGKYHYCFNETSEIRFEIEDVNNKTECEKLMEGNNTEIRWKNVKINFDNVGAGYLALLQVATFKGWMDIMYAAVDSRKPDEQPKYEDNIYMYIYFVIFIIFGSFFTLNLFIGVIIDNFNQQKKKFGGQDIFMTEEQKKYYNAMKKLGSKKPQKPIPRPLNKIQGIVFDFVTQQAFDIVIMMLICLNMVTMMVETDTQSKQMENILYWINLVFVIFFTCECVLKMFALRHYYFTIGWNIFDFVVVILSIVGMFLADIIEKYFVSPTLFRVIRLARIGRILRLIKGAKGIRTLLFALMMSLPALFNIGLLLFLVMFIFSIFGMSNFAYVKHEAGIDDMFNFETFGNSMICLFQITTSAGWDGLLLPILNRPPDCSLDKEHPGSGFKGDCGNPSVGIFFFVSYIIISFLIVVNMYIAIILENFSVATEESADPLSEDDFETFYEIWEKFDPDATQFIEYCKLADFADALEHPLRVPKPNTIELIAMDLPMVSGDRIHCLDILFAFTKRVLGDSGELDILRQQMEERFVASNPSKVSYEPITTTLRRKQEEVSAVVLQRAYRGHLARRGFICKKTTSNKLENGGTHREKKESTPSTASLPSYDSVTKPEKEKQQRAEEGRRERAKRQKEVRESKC

Compound | inhibition at 1 µM [1, 3] [%] | other results
CC(=O)Nc1cc2nnc(C(F)(F)F)n2nc1-c1ccc(OC(F)(F)F)cc1 [Compound 191] | < 30 | 
OCc1ccc(-c2cn3c(C(F)F)nnc3cn2)cc1 [Compound 172, [4-[3-(difluoromethyl)-[1,2,4]triazolo[4,3-a]pyrazin-6-yl]phenyl]methanol] | < 30 | 
CC(C)(C#N)c1ccc(-c2cn3c(C(F)F)nnc3cn2)cc1 [Compound 57] |  | inhibition at 1 µM [1, 4]: < 30%
FC(F)c1nnc2ccc(-c3ccc([C@H]4CC4(F)F)cc3)nn12 [Compound 164, 6-[4-[(1R)-2,2-difluorocyclopropyl]phenyl]-3-(difluoromethyl)-[1,2,4]triazolo[4,3-b]pyridazine] | 30 to 70 | 
Fc1cc(-c2ccc3nnc(C(F)(F)F)n3n2)cnc1OC1CC(F)(F)C1 [Compound 93] | > 70 | 
COC(F)(F)c1nnc2ccc(-c3ccc(C(F)(F)F)cc3C)nn12 [Compound 111] | > 70 | 
Fc1cc(-c2ccc3nnc(C(F)F)n3n2)cnc1OCC(F)(F)F [Compound 85] | < 30 | 
FC(F)(F)Oc1ccc(-c2ccc3nnc(CC4CCCOC4)n3n2)cc1 (centres unmarked) [Compound 38] |  | inhibition at 1 µM [1, 4]: 30 to 70%
FC(F)(F)OCc1ccc(-c2cn3c(C(F)(F)F)nnc3cn2)cc1 [Compound 149] | > 70 | 
FC(F)(F)Oc1ccc(-c2cn3c(C4CC4)nnc3cn2)cc1 [Compound 80] | 30 to 70 | 
Fc1ccc(Oc2nnc3cnc(-c4cnc(OCC(F)(F)F)c(F)c4)cn23)cc1 [Compound 188] | 30 to 70 | 
COCc1cc(OC(F)(F)F)ccc1-c1cn2c(C(F)(F)F)nnc2cn1 [Compound 66] |  | INaL v1.6 (1 μM, % Inhibition) [1, 5]: C (inhibition of greater than 70%)
Cc1cc(-c2ccc(OC(F)(F)F)cc2)nn2c(C(F)(F)F)nnc12 [Compound 139, 8-methyl-6-[4-(trifluoromethoxy)phenyl]-3-(trifluoromethyl)-[1,2,4]triazolo[4,3-b]pyridazine] | < 30 | 
NC(=O)c1cc(-c2ccc(OC(F)(F)F)cc2)nn2c(C(F)(F)F)nnc12 [Compound 183] | < 30 | 
Fc1ccc(-c2nnc3cnc(-c4cnc(OCC(F)(F)F)c(F)c4)cn23)cc1 [Compound 175] | > 70 | 
COc1cc(OC(F)(F)F)ccc1-c1ccc2nnc(C(F)(F)OC)n2n1 [Compound 33] | > 70 | 
COc1cc(C2(C#N)CC2)ccc1-c1cn2c(C(F)(F)F)nnc2cn1 [Compound 64] | < 30 | 
COc1nnc2cnc(-c3ccc(OC(F)(F)F)cc3)cn12 [Compound 148] | < 30 | 
FC(F)(F)OCc1ccc(-c2ccc3nnc(C(F)(F)F)n3n2)cc1 [Compound 118] | > 70 | 

Compound | inhibition at 1 µM [1, 3] [%] | other results
FC(F)c1nnc2ccc(-c3ccc([C@@H]4CC4(F)F)cc3)nn12 [Compound 165, 6-[4-[(1S)-2,2-difluorocyclopropyl]phenyl]-3-(difluoromethyl)-[1,2,4]triazolo[4,3-b]pyridazine] | > 70 | 
OCc1cc(-c2ccc(OC(F)(F)F)cc2)nn2c(C(F)(F)F)nnc12 [Compound 186] | < 30 | 
C[C@@H](Oc1ccc(-c2ccc3nnc(C(F)(F)F)n3n2)cn1)C(F)(F)F [Compound 199, 3-(trifluoromethyl)-6-[6-[(1R)-2,2,2-trifluoro-1-methyl-ethoxy]-3-pyridyl]-[1,2,4]triazolo[4,3-b]pyridazine] | > 70 | 
Cc1cc(OC2CC(F)(F)C2)ccc1-c1cn2c(C(F)(F)F)nnc2cn1 [Compound 174] | 30 to 70 | 
FC(F)(F)Oc1ccc(-c2ccc3nnc(C4CC4(F)F)n3n2)cc1 (single isomer, unassigned) [Compound 46] |  | INaL v1.6 (1 μM, % Inhibition) [1, 5]: C (inhibition of greater than 70%)
CC(=O)Nc1cc(-c2ccc(OC(F)(F)F)cc2)nn2c(C(F)(F)F)nnc12 [Compound 177] | < 30 | 
Fc1cc(C(F)(F)F)ccc1-c1cn2c(C(F)(F)F)nnc2cn1 [Compound 76] | 30 to 70 | 
N#CC1(c2ccc(-c3ccc4nnc(C(F)(F)F)n4n3)cc2)CCC1 [Compound 60] |  | inhibition at 1 µM [1, 4]: 30 to 70%
Cc1nnc2cnc(-c3ccc(OC(F)(F)F)cc3)cn12 [Compound 95] |  | inhibition at 1 µM [1, 4]: < 30%
FC(F)(F)Oc1ccc(-c2cn3c(C4CCOCC4)nnc3cn2)cc1 [Compound 145] |  | inhibition at 1 µM [1, 4]: < 30%
CC(C)(O)c1ccc(-c2ccc3nnc(C(F)(F)F)n3n2)cc1 [Compound 102] | < 30 | 
COCc1nc(-c2ccc(OC(F)(F)F)cc2)cn2c(C(F)(F)F)nnc12 [Compound 192] | < 30 | 
FC(F)(F)c1nnc2ccc(-c3ccc(C4CC4(F)F)cc3)nn12 (centres unmarked) [Compound 120, 6-[4-(2,2-difluorocyclopropyl)phenyl]-3-(trifluoromethyl)-[1,2,4]triazolo[4,3-b]pyridazine] |  | inhibition at 1 µM [1, 4]: > 70%
OCc1cc(-c2ccc3nnc(C(F)(F)F)n3n2)ccc1OC(F)(F)F [Compound 115, [2-(trifluoromethoxy)-5-[3-(trifluoromethyl)-[1,2,4]triazolo[4,3-b]pyridazin-6-yl]phenyl]methanol] | 30 to 70 | 
Nc1cc2nnc(C(F)(F)F)n2nc1-c1ccc(OC(F)(F)F)cc1 [Compound 190, 6-[4-(trifluoromethoxy)phenyl]-3-(trifluoromethyl)-[1,2,4]triazolo[4,3-b]pyridazin-7-amine] | < 30 | 
Nc1cc(-c2ccc(OC(F)(F)F)cc2)nn2c(C(F)(F)F)nnc12 [Compound 176, 6-[4-(trifluoromethoxy)phenyl]-3-(trifluoromethyl)-[1,2,4]triazolo[4,3-b]pyridazin-8-amine] | < 30 | 
Fc1cc(-c2ccc3nnc(C(F)(F)F)n3n2)ccc1OC1CC(F)(F)C1 [Compound 100] | 30 to 70 | 
Fc1cc(-c2cn3c(C(F)(F)F)nnc3cn2)cnc1OC1CC(F)(F)C1 [Compound 84] |  | INaL v1.6 (1 μM, % Inhibition) [1, 5]: C (inhibition of greater than 70%)

Further lines, with some results ahead:

inhibition at 1 µM [1, 3] [%] | Compound | other results
> 70 | FC(F)(F)Oc1ccc(-c2ccc3nnc(C4(F)CC4)n3n2)cc1 [Compound 61] | clearance [2]: 1.6 mL/min/kg; half-life [2]: 15.2 h
30 to 70 | FC1(F)CC(Oc2ccc(-c3cn4c(C(F)(F)F)nnc4cn3)cn2)C1 [Compound 86] | 
< 30 | O=C(O)c1cc(-c2ccc(OC(F)(F)F)cc2)nn2c(C(F)(F)F)nnc12 [Compound 181, 6-[4-(trifluoromethoxy)phenyl]-3-(trifluoromethyl)-[1,2,4]triazolo[4,3-b]pyridazine-8-carboxylic acid] | 
> 70 | C[C@H](Oc1ccc(-c2ccc3nnc(C(F)(F)F)n3n2)cn1)C(F)(F)F [Compound 200, 3-(trifluoromethyl)-6-[6-[(1S)-2,2,2-trifluoro-1-methyl-ethoxy]-3-pyridyl]-[1,2,4]triazolo[4,3-b]pyridazine] | 
> 70 | COc1cc(OC(F)(F)F)ccc1-c1ccc2nnc(C(F)(F)OCC3CC3)n2n1 [Compound 34] | 
< 30 | CC(C)c1nnc2cnc(-c3ccc(OC(F)(F)F)cc3)cn12 [Compound 75] | 
< 30 | FC(F)Oc1ccc(-c2cn3c(C(F)F)nnc3cn2)cc1 [Compound 138] | 
< 30 | COCc1ccc(-c2ccc3nnc(C(F)F)n3n2)cc1 [Compound 171] | 
> 70 | FC(F)Oc1ccc(-c2ccc3nnc(C(F)(F)F)n3n2)cc1 [Compound 116] | 
< 30 | FC(F)(F)COc1nnc2cnc(-c3ccc(OC(F)(F)F)cc3)cn12 [Compound 150] | 
30 to 70 | FC1(F)CC(c2nnc3cnc(-c4ccc(OC(F)(F)F)cc4)cn23)C1 [Compound 82] | 
< 30 | FC(F)(F)Oc1ccc(-c2cn3c([C@@H]4CCOC4)nnc3cn2)cc1 [Compound 161, 3-[(3S)-tetrahydrofuran-3-yl]-6-[4-(trifluoromethoxy)phenyl]-[1,2,4]triazolo[4,3-a]pyrazine] | 
30 to 70 | FC(F)(F)COc1ccc(-c2ccc3nnc(C(F)(F)F)n3n2)nc1 [Compound 58] | 
30 to 70 | FC(F)c1nnc2cnc(-c3ccc(OC4CC(F)(F)C4)cc3)cn12 [Compound 178] | 
< 30 | OCc1ccc(-c2cn3c(C(F)(F)F)nnc3cn2)cc1 [Compound 196, [4-[3-(trifluoromethyl)-[1,2,4]triazolo[4,3-a]pyrazin-6-yl]phenyl]methanol] | 
> 70 | Cc1cc(-c2ccc3nnc(C(F)(F)F)n3n2)ccc1C(F)(F)F [Compound 98] | 
30 to 70 | FC(F)(F)Oc1ccc(-c2cn3c(C[C@@H]4CCCCO4)nnc3cn2)cc1 [Compound 130, 3-[[(2S)-tetrahydropyran-2-yl]methyl]-6-[4-(trifluoromethoxy)phenyl]-[1,2,4]triazolo[4,3-a]pyrazine] | 
30 to 70 | N#CC1(c2ccc(-c3cn4c(C(F)(F)F)nnc4cn3)cc2)CCC1 [Compound 71] | 
< 30 | FC(F)(F)Oc1ccc(-c2cn3c(C[C@@H]4CCCOC4)nnc3cn2)cc1 (single isomer, unassigned) [Compound 155] | 
30 to 70 | FC(F)OCc1cc(OC(F)(F)F)ccc1-c1ccc2nnc(C(F)(F)F)n2n1 [Compound 101] | 

Reference: patent US11629146B2, “Substituted [1,2,4]triazolo[4,3-a]pyrazines as modulators of sodium channel activity” (Praxis Precision Medicines, Inc., priority 2016, dated 2023)
